The results in this text go back to ChEMBL document CHEMBL1201862, “PubChem BioAssay data set” (2004).

The test system of one assay is Vero. Briefly: Vero cell toxicity, dose response, cytotoxicity control, plate reader, cherry-pick samples (AID 687020). The format is functional, cell-based. Conditions: Chlorocebus sabaeus.
Assay [1] concerns the target Matrix metalloproteinase-14 (Homo sapiens, UniProt P50281). Briefly: Dose Response confirmation of uHTS hits for a small molecule inhibitors of MT1-MMP activation in a fluorescence assay set 2. Type of assay: functional.
The target of assay [2] is T1, Methionyl-tRNA synthetase, putative (Trypanosoma brucei brucei, UniProt Q38C91).
T1 sequence (Q38C91 whole entry): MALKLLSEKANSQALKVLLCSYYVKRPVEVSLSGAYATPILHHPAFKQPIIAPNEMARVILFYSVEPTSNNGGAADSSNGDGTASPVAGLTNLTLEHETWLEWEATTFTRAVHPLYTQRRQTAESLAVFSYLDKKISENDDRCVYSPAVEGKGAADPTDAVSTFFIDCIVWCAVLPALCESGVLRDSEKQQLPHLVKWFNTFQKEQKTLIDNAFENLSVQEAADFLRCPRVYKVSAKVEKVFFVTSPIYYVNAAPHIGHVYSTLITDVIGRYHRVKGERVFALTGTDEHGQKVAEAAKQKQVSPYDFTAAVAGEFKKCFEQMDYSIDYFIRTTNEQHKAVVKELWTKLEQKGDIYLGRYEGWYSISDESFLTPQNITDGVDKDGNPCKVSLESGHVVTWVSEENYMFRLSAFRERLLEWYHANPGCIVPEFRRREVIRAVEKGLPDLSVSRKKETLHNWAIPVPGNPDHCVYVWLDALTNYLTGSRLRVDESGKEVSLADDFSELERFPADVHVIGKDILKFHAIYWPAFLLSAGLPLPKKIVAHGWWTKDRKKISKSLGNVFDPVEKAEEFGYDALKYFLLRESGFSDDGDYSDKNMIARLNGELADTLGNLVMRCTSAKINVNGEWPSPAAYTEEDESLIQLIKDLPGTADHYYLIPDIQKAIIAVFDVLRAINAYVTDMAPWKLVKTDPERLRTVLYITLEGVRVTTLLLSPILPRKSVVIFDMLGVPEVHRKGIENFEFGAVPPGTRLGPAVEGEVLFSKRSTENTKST
The format is functional, Trypanosoma brucei brucei strain 927/4 GUTat10.1.

Assay [3] deals with T1, Methionyl-tRNA synthetase, putative. The format is functional, Trypanosoma brucei brucei strain 927/4 GUTat10.1. This is another data set of the same source.
A short description of assay [4]: ADAM10 inhibitors, peptide cleavage, dose response, biochemical, QFRET (AID 743254).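 Further: ADAM10 enzyme with the DM2 quenched FRET peptide as substrate; EDANS fluorescence gain as the protease cuts the substrate; inhibitor potency against ADAM10 proteolytic activity.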
A short description of assay [5]: microbe, parasite or virus in culture. The format is functional. Conditions: Mycobacterium tuberculosis.
The nature of assay [6]: Luminescence Cell-Based Dose Retest to Confirm Inhibitors of Cancer Stem Cells. [Related pubchem assays (depositor defined):AID2717, AID2721]. Type of assay: functional. Conditions: Homo sapiens.
Assay [7] deals with Disintegrin and metalloproteinase domain-containing protein 17 (Homo sapiens, UniProt P78536). Briefly: ADAM17 protease inhibitors, dose response, counter-screen for ADAM10 exosite inhibitor project, biochemical, quenched FRET substrate (AID 743253).
Assay [8] deals with T2, Trace amine-associated receptor 1 (Homo sapiens, UniProt Q96RJ0).
T2 sequence (Q96RJ0 whole entry): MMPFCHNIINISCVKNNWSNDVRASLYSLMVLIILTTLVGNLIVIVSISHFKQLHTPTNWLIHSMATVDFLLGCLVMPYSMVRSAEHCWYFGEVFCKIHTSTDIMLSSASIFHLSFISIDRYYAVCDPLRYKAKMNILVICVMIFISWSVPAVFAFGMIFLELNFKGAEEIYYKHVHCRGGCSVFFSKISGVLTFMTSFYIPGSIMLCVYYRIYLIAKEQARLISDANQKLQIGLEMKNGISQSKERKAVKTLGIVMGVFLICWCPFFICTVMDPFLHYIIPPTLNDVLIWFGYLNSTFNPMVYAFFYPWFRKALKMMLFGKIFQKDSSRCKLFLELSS
Briefly: Fluorescence-based cell-based high throughput dose response assay to identify agonists of the human trace amine associated receptor 1 (TAAR1). The format is functional.

A short description of assay [9]: cells. Type of assay: functional, cell-based.
Assay [10] addresses T2, Trace amine-associated receptor 1. Briefly: Counterscreen for agonists of the human trace amine associated receptor 1 (hTAAR1): Fluorescence-based cell-based high throughput dose response assay to identify hTAAR1 agonist that also desensitize TAAR1 receptor response. The format is functional.
The nature of assay [11]: cells. Type of assay: functional, cell-based. This is another data set of the same source.
The target in the next assay is Kallikrein-7 (Homo sapiens, UniProt P49862). Nature of the assay: Fluorescence Intensity-based biochemical primary high throughput dose response assay to identify activators of kallikrein-7 (K7) zymogen.
The nature of assay [12]: Counterscreen for inhibitors of Trypanosoma brucei methionyl tRNA synthetase (MetRS): Luminescence-based cell-based high throughput dose response assay to identify compounds that are cytotoxic to Jurkat human T lymphocyte cells. The format is functional.
A further assay has as its target Paired box protein Pax-8 (Homo sapiens, UniProt Q06710). Nature of the assay: inhibitors of PAX8-driven TPO luciferase reporter, dose response, RMG-I cells, cherry-pick (AID 687027).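 Further: luciferase reporter driven by Pax8 target thyroperoxidase promoter measured by SteadyGlo luminescence.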 The format is functional, cell-based.
Assay [13] in a line: cytotoxicity in OVCAR8 ovarian cancer cells, dose response, PAX8 project, cell-based, plate reader, dry powder samples (AID 743197). The format is functional. Conditions: OVCAR-8.
The nature of assay [14]: IGROV1 ovarian cancer cell cytotoxicity, dose response, PAX8 inhibitor project, plate reader, dry powder samples (AID 743043). Conditions: IGROV-1. The format is functional, cell-based.
A short description of assay [15]: NIH:OVCAR-3 ovarian cancer cell cytotoxicity, dose response, PAX8 inhibitor project, plate reader, dry powder samples (AID 743044). The format is functional, cell-based.
Assay [16] in a line: non-specific cell cytotoxicity, dose response, cytotoxicity control for PAX8 inhibitor project, plate reader, dry powder samples (AID 743021). The format is functional, cell-based.
A short description of assay [17]: A375 melanoma cell cytotoxicity, dose response, counter-screen for MITF inhibitor project, CellTiter-Glo luminescence, dry powder, set 2 (AID 624489).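 Further: actives are compounds lowering A375 viability meaning general cytotoxicity.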 The format is functional, cell-based. Conditions: A-375.
Assay [18] can be described thus: A375 melanoma cell viability loss, dose response, counter-screen for MITF inhibitor project, CellTiter-Glo luminescence, dry powder, set 4 (AID 624364).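 Further: A375 melanoma cells are MITF independent so this is a counter screen.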 Type of assay: functional, cell-based. Conditions: A-375.

Active and inactive are the calls of the source. Some results are limits rather than exact numbers.

Paired box protein Pax-8, sequence (Q06710 whole entry): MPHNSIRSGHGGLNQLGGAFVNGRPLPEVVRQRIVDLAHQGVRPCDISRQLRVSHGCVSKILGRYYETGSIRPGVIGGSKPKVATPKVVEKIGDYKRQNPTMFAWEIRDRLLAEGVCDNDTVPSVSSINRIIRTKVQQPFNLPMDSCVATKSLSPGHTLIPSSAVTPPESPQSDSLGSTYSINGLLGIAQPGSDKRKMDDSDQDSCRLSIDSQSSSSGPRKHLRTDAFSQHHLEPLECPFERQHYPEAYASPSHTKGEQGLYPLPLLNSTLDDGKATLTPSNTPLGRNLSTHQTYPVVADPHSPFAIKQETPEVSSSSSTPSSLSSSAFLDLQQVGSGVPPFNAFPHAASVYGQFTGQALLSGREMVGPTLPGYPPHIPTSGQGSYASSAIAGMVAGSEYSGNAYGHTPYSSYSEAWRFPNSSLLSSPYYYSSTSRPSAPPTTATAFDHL
Disintegrin and metalloproteinase domain-containing protein 17, sequence (P78536 whole entry, the tested form may be a part): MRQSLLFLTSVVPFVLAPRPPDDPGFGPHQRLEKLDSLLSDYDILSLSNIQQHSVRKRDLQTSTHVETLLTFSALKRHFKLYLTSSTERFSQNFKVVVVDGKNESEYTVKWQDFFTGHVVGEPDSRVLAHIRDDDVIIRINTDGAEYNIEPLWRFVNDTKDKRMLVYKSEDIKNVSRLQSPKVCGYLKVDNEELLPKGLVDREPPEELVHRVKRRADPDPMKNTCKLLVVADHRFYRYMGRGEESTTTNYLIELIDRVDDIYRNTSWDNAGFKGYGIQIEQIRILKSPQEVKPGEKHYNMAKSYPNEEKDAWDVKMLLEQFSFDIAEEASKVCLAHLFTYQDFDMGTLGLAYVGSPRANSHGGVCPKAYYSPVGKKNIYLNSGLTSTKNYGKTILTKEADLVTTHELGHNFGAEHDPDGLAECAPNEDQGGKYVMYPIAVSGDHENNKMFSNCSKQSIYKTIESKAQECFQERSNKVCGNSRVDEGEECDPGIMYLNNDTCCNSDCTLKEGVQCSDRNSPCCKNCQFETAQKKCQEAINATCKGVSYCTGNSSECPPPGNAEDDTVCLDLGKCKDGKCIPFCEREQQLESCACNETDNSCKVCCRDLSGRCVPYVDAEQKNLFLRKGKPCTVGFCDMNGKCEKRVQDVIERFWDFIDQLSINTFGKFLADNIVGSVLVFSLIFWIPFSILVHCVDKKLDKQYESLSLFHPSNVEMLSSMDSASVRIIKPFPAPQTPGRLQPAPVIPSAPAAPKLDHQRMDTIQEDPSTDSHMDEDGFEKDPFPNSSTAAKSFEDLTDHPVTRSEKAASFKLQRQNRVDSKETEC
Kallikrein-7, sequence (P49862 whole entry): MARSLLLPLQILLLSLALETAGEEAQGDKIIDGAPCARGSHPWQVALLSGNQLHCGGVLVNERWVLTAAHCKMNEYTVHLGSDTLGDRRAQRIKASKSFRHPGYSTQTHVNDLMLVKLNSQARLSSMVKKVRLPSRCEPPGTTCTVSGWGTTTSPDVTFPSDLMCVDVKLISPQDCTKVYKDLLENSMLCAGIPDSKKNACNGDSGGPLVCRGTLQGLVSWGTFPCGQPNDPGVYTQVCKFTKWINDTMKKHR

`CCN1CCN(S(=O)(=O)c2ccc(Cl)c(C(=O)N(C)CCOc3ccc(Cl)cc3)c2)CC1`: the AC50 in the assay with Vero was 21.1 µM (active).

As to `COc1cc(-c2cc(=O)c3c(O)c(OC)c(OC)cc3o2)cc(OC)c1O`, the IC50 in [1] is > 80 µM (inactive).

Turning to `O=C(CSc1nc2ncccc2[nH]1)Nc1ccc2c(c1)OCO2`, the values for the IC50 in [2] and in assay [3] were 30.3 µM (inactive) and 81.6 µM (inactive), respectively.

As for `O=[N+]([O-])c1cccnc1N1CCC(c2cc(-c3cccc(C(F)(F)F)c3)[nH]n2)CC1`, the IC50 in assay [4] is 12.7 µM (inactive). For the same molecule, the CC50 in assay [5] was 28.7 µM (active). Further, the AC50 in [6] was 2.87 µM (active).

In the case of `O=[N+]([O-])c1cccnc1N1CCC(c2cc(-c3cccc(C(F)(F)F)c3)n[nH]2)CC1`, in assay [7], the IC50 is > 69.5 µM (inactive).

`COc1ccccc1CCNS(=O)(=O)CCNC(=O)c1ccc2c(c1)OCO2`: the results for the EC50 (in assay [8]; in “cells [9]”) were 4.48 µM (active) and > 29.9 µM (inactive), respectively. The IC50 was 6.62 µM (active) in assay [10] and > 29.9 µM (inactive) in the assay “cells [11]”.

`COc1ccc(OC)c(/C=C/C(=O)N(C)CC(=O)Nc2ccc(N3CCOCC3)cc2)c1`: the EC50 at Kallikrein-7 is > 69.5 µM (inactive).

On to `COc1ccc(N2CCN(c3cc(C(=O)NC4CCCCC4)ncn3)CC2)cc1OC`, for which, in the assay with Vero, the AC50 is 29.7 µM (active).

On to `O=C(NCc1nc2ccccc2[nH]1)C1=C[C@H](C2CCCCC2)C[C@H](OCCCCO)O1`, for which the IC50 in assay [2] is 3.14 µM (active); in [3], 5.64 µM (active); in assay [12] it was 28.8 µM (inactive).

For `CCCCC[C@@H](C)N1C[C@@H](COCc2ccccc2)Oc2cc(N3CC[C@H](O)C3)ccc2S1(=O)=O`, the IC50 in assay [7] was > 69.5 µM (inactive); in assay [4], 11.3 µM (inactive).

Consider `C[C@@H]1CN([C@H](C)CO)C(=O)c2cc(NC(=O)Nc3ccc4c(c3)OCO4)ccc2O[C@@H](C)CCCCO[C@H]1CN(C)Cc1ccc(C(F)(F)F)cc1`, for which the AC50 is 8.35 µM (active) at Paired box protein Pax-8, > 60 µM (inactive) in assay [13], 12.8 µM (active) in [14] and 11.6 µM (active) in assay [15].

Consider `O=C(C[C@@H]1CC[C@H]2[C@@H](COC[C@@H](O)CN2Cc2cccc(F)c2)O1)NCC1CCCCC1`, for which the AC50 is 34 µM (active) on Paired box protein Pax-8 and 61.8 µM (active) in assay [16].

For the molecule `c1ccc(Cc2cnc(N3CCNCC3)nc2)cc1`, the EC50 is 7.24 µM (active) in assay [8] and > 29.9 µM (inactive) in the assay “cells [9]”. For the same molecule, the IC50 (in assay [10]; in the assay “cells [11]”) was > 29.9 µM (inactive) throughout.

For the molecule `C[C@@H]1CN([C@H](C)CO)C(=O)c2cc(NS(=O)(=O)c3ccc(Cl)cc3)ccc2O[C@@H](C)CCCCO[C@H]1CN(C)S(=O)(=O)c1ccc(F)cc1`, the results for the AC50 (on Paired box protein Pax-8; in [13]; in assay [14]) were 2.46 µM (active), > 70 µM (inactive) and 43.9 µM (active), respectively.

Take `CCN(CC)CCCCNC1=C(Nc2ccccc2)C(=O)c2ccccc2C1=O`: the AC50 in assay [17] and in assay [18] was > 70 µM (inactive) in each case.

Regarding `O=C(NC1=C(N2CCCCC2)C(=O)c2ccccc2C1=O)c1ccc(Br)cc1`, the AC50 in assay [17] is 50.3 µM (active); in [18], > 70 µM (inactive).

In the case of `Cc1c(C(=O)O)c(O)cc2c1C(=O)c1c(O)c([C@@H]3O[C@H](CO)[C@@H](O)[C@H](O)[C@H]3O)c(O)c(O)c1C2=O` [CARMINIC ACID], in assay [1], the IC50 is 19.5 µM (active).
